Structures are written as SMILES.

Test [1] has as its target T1, Tyrosine-protein phosphatase non-receptor type 1 (Homo sapiens, UniProt P18031).
T1 sequence (P18031 whole entry): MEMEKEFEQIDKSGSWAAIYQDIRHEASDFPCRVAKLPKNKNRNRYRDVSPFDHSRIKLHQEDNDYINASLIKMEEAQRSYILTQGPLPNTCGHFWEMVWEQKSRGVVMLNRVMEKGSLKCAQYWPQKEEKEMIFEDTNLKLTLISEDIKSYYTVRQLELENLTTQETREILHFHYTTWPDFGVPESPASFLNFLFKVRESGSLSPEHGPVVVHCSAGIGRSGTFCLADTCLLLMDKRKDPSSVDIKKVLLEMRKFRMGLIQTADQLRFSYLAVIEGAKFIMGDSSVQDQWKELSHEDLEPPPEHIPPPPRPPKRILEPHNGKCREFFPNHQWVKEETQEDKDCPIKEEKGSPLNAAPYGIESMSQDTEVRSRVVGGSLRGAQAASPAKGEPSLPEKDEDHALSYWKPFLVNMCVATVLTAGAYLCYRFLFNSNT
Put plainly: Inhibition of human recombinant PTP1B (1 to 322 residues) expressed in Escherichia coli using pNPP as substrate preincubated with substrate for 10 mins followed by enzyme addition and measured for 10 mins by absorbance based analysis.

The next test concerns Saccharomyces cerevisiae. Description: Inhibition of Saccharomyces cerevisiae alpha-glucosidase at 100 uM using pNPG as substrate preincubated for 10 mins followed by substrate addition and measured for 35 mins by microplate photometric method. As to conditions: time 45.0 min.
Test [2] can be described thus: Inhibition of Saccharomyces cerevisiae alpha-glucosidase using pNPG as substrate preincubated for 10 mins followed by substrate addition and measured for 35 mins by microplate photometric method.

`CC(C)=CCC/C(C)=C/CC[C@]1(C)C=Cc2c(cc(C)c(C(=O)O)c2O)O1`: the IC50 was 2.5 µM in test [1] and 10.6 µM in test [2]. In addition, the inhibition with Saccharomyces cerevisiae was 99.9%.
Turning to `C=C(C)/C=C/C/C(C)=C/CC[C@]1(C)C=Cc2c(cc(C)c(C(=O)O)c2O)O1`, the IC50 in test [1] is 19.9 µM. The inhibition with Saccharomyces cerevisiae worked out at 27.5%.
As for `Cc1c(O)c(C)c2c(c1O)C(=O)C[C@@H](c1ccc(O)cc1)O2`, in the test with Saccharomyces cerevisiae, the inhibition worked out at 11.2%.
Consider `CC(C)=CCC[C@](C)(O)[C@H](O)CC[C@]1(C)C=Cc2c(cc(C)c(C(=O)O)c2O)O1` (mixture of isomers), for which the inhibition with Saccharomyces cerevisiae was -1.8%.
In the case of `Cc1c(O)cc(O)c2c1O[C@H](c1ccc(O)cc1)CC2=O`, the inhibition in the test on Saccharomyces cerevisiae was 14.4%.
The same measure, in the same setting: to `COC(C)(C)[C@H](O)CC/C(C)=C/CC[C@]1(C)C=Cc2c(cc(C)c(C(=O)O)c2O)O1` belongs 17.2%.
On to `C=C(C)[C@H](O)CCC(=C)[C@H](O)CC[C@]1(C)C=Cc2c(cc(C)c(C(=O)O)c2O)O1`, for which the half-inhibitory concentration (IC50) turned out to be 36.3 µM in test [1] and 93.5 µM in test [2]. The inhibition with Saccharomyces cerevisiae stood at 63.5%.
As to `C/C(=C\CC[C@]1(C)C=Cc2c(cc(C)c(C(=O)O)c2O)O1)C/C=C\C(C)(C)O`, the IC50 in test [1] is 68.1 µM.
Regarding `CO[C@@](C)(CCC=C(C)C)[C@H](O)CC[C@]1(C)C=Cc2c(cc(C)c(C(=O)O)c2O)O1` (relative stereo), the IC50 in test [1] was determined as 53.6 µM. Also, the inhibition in the test on Saccharomyces cerevisiae turned out to be 23.8%.
For `CC(C)=CCC[C@@](C)(O)[C@H](O)CC[C@]1(C)C=Cc2c(cc(C)c(C(=O)O)c2O)O1` (relative stereo), the inhibition in the test with Saccharomyces cerevisiae is -1.8%.
`C=C(CCC=C(C)C)[C@H](O)CC[C@]1(C)C=Cc2c(cc(C)c(C(=O)O)c2O)O1`: the figures for the IC50 in test [1] and in test [2] were 6 µM and 18.6 µM, respectively. In addition, the inhibition with Saccharomyces cerevisiae came to 99.8%.
The corresponding values for `CC(C)=CCC/C(C)=C/CC/C(C)=C/Cc1c(O)cc(C)c(C(=O)O)c1O` [GRIFOLIC ACID] are 3.6 µM, 8 µM and 99.7%.
The corresponding values for `C=C(C)[C@H](O)CC/C(C)=C/CC[C@]1(C)C=Cc2c(cc(C)c(C(=O)O)c2O)O1` are 10.3 µM, 21.2 µM and 99.6%.
For `C[C@H]1O[C@H](O[C@H]2[C@H](O)[C@@H](O)[C@@H](O[C@H]3[C@H](O)[C@@H](O)C(O)O[C@@H]3CO)O[C@@H]2CO)[C@H](O)[C@@H](O)[C@@H]1N[C@H]1C=C(CO)[C@@H](O)[C@H](O)[C@H]1O` (some centres undefined) [ACARBOSE], the IC50 in test [2] amounted to 796 µM.
As to `C=C(C/C=C/C(C)(C)O)[C@H](O)CC[C@]1(C)C=Cc2c(cc(C)c(C(=O)O)c2O)O1`, in test [1], the concentration for half-maximal inhibition (IC50) amounted to 28.2 µM. In addition, in the test with Saccharomyces cerevisiae, the inhibition came to 36.9%.
As to `CO[C@](C)(CCC=C(C)C)[C@H](O)CC[C@]1(C)C=Cc2c(cc(C)c(C(=O)O)c2O)O1` (mixture of isomers), the inhibition in the test with Saccharomyces cerevisiae was 15.6%.

(Values after ChEMBL document CHEMBL4831521, “Dual High-Resolution α-Glucosidase and PTP1B Inhibition Profiling Combined with HPLC-PDA-HRMS-SPE-NMR Analysis for the Identification of Potentially Antidiabetic Chromene Meroterpenoids from Rhododendron capitatum” (J Nat Prod, 2021).)
